The values below come from patent US9073880B2, “2-(2-phenylethenyl) 1,3-benzodiazepine derivatives useful for the treatment of cancer” (Yissum Research Development Company of the Hebrew …, priority 2010, dated 2015).

The assay relates to human melanoma A375 cells. The assay can be described thus: Cell proliferation, A375 (Example 4). It counts as cell-based. Particulars: A-375, compound in 2-hydroxypropyl-β-cyclodextrin. The method, then: Human ovary cancer A2780 cells lines were seeded at a density of 5000 cells/well, human melanoma A375 cells were plated at a density of 2,500 cells/well, human colon carcinoma HCT15 cells were plated at a density of 3,000 cells/well, human prostate carcinoma PC3 cells were plated at a density of 1,500 cells/well, human breast carcinoma MCF7 cells were plated at a density of 5,000 cells/well, human breast carcinoma MDA MB 468 cells were plated at a density of 6,000 cells/well, human myeloma U266, RPMI8226 and CAG cells were plated at a density of 10,000 cells/well. All cells were plated in 96-well plates in 90 μl growth medium containing 10% FCS, 100 units/ml penicillin and 100 μg/ml streptomycin. Compound 3 was added a day later in […] of 1% DMSO in DDW to obtain final concentrations of 0, 0.1, 0.3, 1, 3, and 10 μM. The final concentration of DMSO (0.1% DMSO) was kept constant in all samples. […] The optical density values were read at 630 nm in ELISA plate reader. Non-adhered cells were exposed to WST-1 reagent for 5 hours following 72 hours treatment with the inhibitors, and optical density values were read at 630 nm in ELISA plate reader. The data was analyzed in Microsoft Excel, using the vehicle control as 100% proliferation. […]

As to `O=c1c(O)cc2cnc(/C=C/c3cc(O)c(O)c(Br)c3)sc-2c1O` [Compound 3], the IC50 (in general, the concentration needed to halve the response being measured) amounted to 500 nM.

On to `O=c1c(O)cc2cnc(/C=C/c3ccc(O)c(O)c3Br)sc-2c1O` [Compound 5], for which the IC50 was 400 nM.
